# Measured values taken from PubChem BioAssay (NCI).
#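 Dose response: 5 concentrations. Exposure: 48 h. Format: 96-well plates. Endpoint: linear interpolation; highest concentration if not reached. The concentration for full growth arrest is given as TGI.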
# Tests used:
# Test in all cases: NCI tumour cell line growth inhibition, 48 h
# 786-0 renal = tested on: 786-0 renal
# A549 NSCLC = tested on: A549 NSCLC
# ACHN renal = tested on: ACHN renal
# BT-549 breast = tested on: BT-549 breast
# CAKI-1 renal = tested on: CAKI-1 renal
# CCRF-CEM leukemia = tested on: CCRF-CEM leukemia
# COLO 205 colon = tested on: COLO 205 colon
# DU-145 prostate = tested on: DU-145 prostate
# EKVX NSCLC = tested on: EKVX NSCLC
# HCT-116 colon = tested on: HCT-116 colon
# HCT-15 colon = tested on: HCT-15 colon
# HL-60(TB) leukemia = tested on: HL-60(TB) leukemia
# HS 578T breast = tested on: HS 578T breast
# HT29 colon = tested on: HT29 colon
# KM12 colon = tested on: KM12 colon
# LOX IMVI melanoma = tested on: LOX IMVI melanoma
# M14 melanoma = tested on: M14 melanoma
# MALME-3M melanoma = tested on: MALME-3M melanoma
# MCF7 breast = tested on: MCF7 breast
# MDA-MB-435 = tested on: MDA-MB-435
# MDA-N = tested on: MDA-N
# MOLT-4 leukemia = tested on: MOLT-4 leukemia
# NCI-H226 lung = tested on: NCI-H226 lung
# NCI-H23 lung = tested on: NCI-H23 lung
# NCI-H522 lung = tested on: NCI-H522 lung
# NCI/ADR-RES ovarian = tested on: NCI/ADR-RES ovarian
# OVCAR-3 ovarian = tested on: OVCAR-3 ovarian
# OVCAR-4 ovarian = tested on: OVCAR-4 ovarian
# OVCAR-5 ovarian = tested on: OVCAR-5 ovarian
# OVCAR-8 ovarian = tested on: OVCAR-8 ovarian
# PC-3 prostate = tested on: PC-3 prostate
# RPMI-8226 leukemia = tested on: RPMI-8226 leukemia
# RXF 393 renal = tested on: RXF 393 renal
# SF-268 CNS = tested on: SF-268 CNS
# SF-295 CNS = tested on: SF-295 CNS
# SF-539 CNS = tested on: SF-539 CNS
# SK-MEL-28 melanoma = tested on: SK-MEL-28 melanoma
# SK-MEL-5 melanoma = tested on: SK-MEL-5 melanoma
# SK-OV-3 ovarian = tested on: SK-OV-3 ovarian
# SN12C renal = tested on: SN12C renal
# SNB-19 CNS = tested on: SNB-19 CNS
# SNB-75 CNS = tested on: SNB-75 CNS
# SR leukemia = tested on: SR leukemia
# SW-620 colon = tested on: SW-620 colon
# T-47D breast = tested on: T-47D breast
# TK-10 renal = tested on: TK-10 renal
# U251 CNS = tested on: U251 CNS
# UACC-257 melanoma = tested on: UACC-257 melanoma
# UACC-62 melanoma = tested on: UACC-62 melanoma
# UO-31 renal = tested on: UO-31 renal
# A498 renal = tested on: A498 renal
# HCC-2998 colon = tested on: HCC-2998 colon
# HOP-62 NSCLC = tested on: HOP-62 NSCLC
# HOP-92 NSCLC = tested on: HOP-92 NSCLC
# IGROV1 ovarian = tested on: IGROV1 ovarian
# K-562 leukemia = tested on: K-562 leukemia
# MDA-MB-231 breast = tested on: MDA-MB-231 breast
# NCI-H460 lung = tested on: NCI-H460 lung
# SK-MEL-2 melanoma = tested on: SK-MEL-2 melanoma
smiles,measurement,setting,value
COc1ccc(N2C(=O)C(=O)C3(CCCCC3)C2=O)c(OC)c1OC,TGI,786-0 renal,> 100 µM
same,TGI,A549 NSCLC,> 100 µM
same,TGI,ACHN renal,> 100 µM
same,TGI,BT-549 breast,> 100 µM
same,TGI,CAKI-1 renal,> 100 µM
same,TGI,CCRF-CEM leukemia,> 100 µM
same,TGI,COLO 205 colon,> 100 µM
same,TGI,DU-145 prostate,> 100 µM
same,TGI,EKVX NSCLC,> 100 µM
same,TGI,HCT-116 colon,> 100 µM
same,TGI,HCT-15 colon,> 100 µM
same,TGI,HL-60(TB) leukemia,> 100 µM
same,TGI,HS 578T breast,> 100 µM
same,TGI,HT29 colon,> 100 µM
same,TGI,KM12 colon,> 100 µM
same,TGI,LOX IMVI melanoma,> 100 µM
same,TGI,M14 melanoma,> 100 µM
same,TGI,MALME-3M melanoma,> 100 µM
same,TGI,MCF7 breast,> 100 µM
same,TGI,MDA-MB-435,> 100 µM
same,TGI,MDA-N,> 100 µM
same,TGI,MOLT-4 leukemia,> 100 µM
same,TGI,NCI-H226 lung,> 100 µM
same,TGI,NCI-H23 lung,> 100 µM
same,TGI,NCI-H522 lung,> 100 µM
same,TGI,NCI/ADR-RES ovarian,> 100 µM
same,TGI,OVCAR-3 ovarian,> 100 µM
same,TGI,OVCAR-4 ovarian,> 100 µM
same,TGI,OVCAR-5 ovarian,> 100 µM
same,TGI,OVCAR-8 ovarian,> 100 µM
same,TGI,PC-3 prostate,> 100 µM
same,TGI,RPMI-8226 leukemia,> 100 µM
same,TGI,RXF 393 renal,> 100 µM
same,TGI,SF-268 CNS,> 100 µM
same,TGI,SF-295 CNS,> 100 µM
same,TGI,SF-539 CNS,> 100 µM
same,TGI,SK-MEL-28 melanoma,> 100 µM
same,TGI,SK-MEL-5 melanoma,> 100 µM
same,TGI,SK-OV-3 ovarian,> 100 µM
same,TGI,SN12C renal,> 100 µM
same,TGI,SNB-19 CNS,> 100 µM
same,TGI,SNB-75 CNS,> 100 µM
same,TGI,SR leukemia,> 100 µM
same,TGI,SW-620 colon,> 100 µM
same,TGI,T-47D breast,> 100 µM
same,TGI,TK-10 renal,> 100 µM
same,TGI,U251 CNS,> 100 µM
same,TGI,UACC-257 melanoma,> 100 µM
same,TGI,UACC-62 melanoma,> 100 µM
same,TGI,UO-31 renal,> 100 µM
CC1=C(C(=O)NCCCN(CCO)CCO)CC(C(=O)NCCCN(CCO)CCO)=C(C)N1,TGI,786-0 renal,> 100 µM
same,TGI,A498 renal,> 100 µM
same,TGI,A549 NSCLC,> 100 µM
same,TGI,ACHN renal,> 100 µM
same,TGI,BT-549 breast,> 100 µM
same,TGI,CAKI-1 renal,> 100 µM
same,TGI,CCRF-CEM leukemia,77.9 µM
same,TGI,COLO 205 colon,> 100 µM
same,TGI,DU-145 prostate,> 100 µM
same,TGI,EKVX NSCLC,> 100 µM
same,TGI,HCC-2998 colon,> 100 µM
same,TGI,HCT-116 colon,> 100 µM
same,TGI,HCT-15 colon,> 100 µM
same,TGI,HL-60(TB) leukemia,> 100 µM
same,TGI,HOP-62 NSCLC,> 100 µM
same,TGI,HOP-92 NSCLC,> 100 µM
same,TGI,HS 578T breast,> 100 µM
same,TGI,HT29 colon,> 100 µM
same,TGI,IGROV1 ovarian,> 100 µM
same,TGI,K-562 leukemia,> 100 µM
same,TGI,KM12 colon,> 100 µM
same,TGI,LOX IMVI melanoma,> 100 µM
same,TGI,M14 melanoma,> 100 µM
same,TGI,MCF7 breast,> 100 µM
same,TGI,MDA-MB-231 breast,> 100 µM
same,TGI,MDA-MB-435,> 100 µM
same,TGI,MDA-N,> 100 µM
same,TGI,MOLT-4 leukemia,> 100 µM
same,TGI,NCI-H226 lung,> 100 µM
same,TGI,NCI-H23 lung,> 100 µM
same,TGI,NCI-H460 lung,> 100 µM
same,TGI,NCI-H522 lung,> 100 µM
same,TGI,NCI/ADR-RES ovarian,> 100 µM
same,TGI,OVCAR-3 ovarian,> 100 µM
same,TGI,OVCAR-4 ovarian,> 100 µM
same,TGI,OVCAR-5 ovarian,> 100 µM
same,TGI,OVCAR-8 ovarian,> 100 µM
same,TGI,PC-3 prostate,> 100 µM
same,TGI,RPMI-8226 leukemia,> 100 µM
same,TGI,RXF 393 renal,> 100 µM
same,TGI,SF-268 CNS,> 100 µM
same,TGI,SF-295 CNS,> 100 µM
same,TGI,SF-539 CNS,> 100 µM
same,TGI,SK-MEL-2 melanoma,> 100 µM
same,TGI,SK-MEL-5 melanoma,95.7 µM
same,TGI,SK-OV-3 ovarian,> 100 µM
same,TGI,SN12C renal,> 100 µM
same,TGI,SNB-19 CNS,> 100 µM
same,TGI,SNB-75 CNS,80 µM
same,TGI,SW-620 colon,> 100 µM
same,TGI,T-47D breast,> 100 µM
same,TGI,TK-10 renal,> 100 µM
same,TGI,U251 CNS,> 100 µM
same,TGI,UACC-257 melanoma,> 100 µM
same,TGI,UACC-62 melanoma,> 100 µM
same,TGI,UO-31 renal,> 100 µM
